Ki and inhibition data for 21 compounds are collected here from ChEMBL document CHEMBL1157642, “2-Amino-5-benzoyl-4-phenylthiazoles: Development of potent and selective adenosine A1 receptor antagonists” (Bioorg Med Chem, 2010).

For orientation: Ki means the dissociation constant of the complex between target and ligand, obtained from inhibition or displacement. Lower therefore signals tighter binding. One may read the inhibition as the percentage by which the read-out fell short of the control. High values mean a response far below the control, low ones a response near the control.

The target of test [1] is T1, Adenosine receptor A2a (Rattus norvegicus, UniProt P30543).
T1 sequence (P30543 whole entry): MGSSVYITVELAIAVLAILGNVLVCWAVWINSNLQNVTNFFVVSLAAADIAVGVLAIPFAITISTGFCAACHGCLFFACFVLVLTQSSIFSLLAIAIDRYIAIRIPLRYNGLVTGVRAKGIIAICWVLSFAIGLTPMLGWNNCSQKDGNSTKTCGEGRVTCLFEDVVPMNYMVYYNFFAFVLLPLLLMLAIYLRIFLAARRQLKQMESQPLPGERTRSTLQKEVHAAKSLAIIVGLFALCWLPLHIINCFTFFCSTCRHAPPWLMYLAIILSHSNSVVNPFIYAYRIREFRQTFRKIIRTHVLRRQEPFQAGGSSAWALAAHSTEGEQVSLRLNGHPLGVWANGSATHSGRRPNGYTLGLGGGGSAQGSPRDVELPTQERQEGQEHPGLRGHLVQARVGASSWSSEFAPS
Test [2] has as its target T2, Adenosine receptor A3 (Homo sapiens) (UniProt P0DMS8).
T2 sequence (whole entry): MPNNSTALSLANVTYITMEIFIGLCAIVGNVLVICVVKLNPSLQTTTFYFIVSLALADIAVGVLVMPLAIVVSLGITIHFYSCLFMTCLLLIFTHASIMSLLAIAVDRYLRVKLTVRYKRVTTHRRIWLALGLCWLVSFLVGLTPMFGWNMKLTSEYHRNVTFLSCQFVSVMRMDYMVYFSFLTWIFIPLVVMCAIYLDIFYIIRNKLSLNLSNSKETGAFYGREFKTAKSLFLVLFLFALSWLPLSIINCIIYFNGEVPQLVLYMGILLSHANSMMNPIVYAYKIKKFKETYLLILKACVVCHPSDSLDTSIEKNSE
In words: Displacement of [3H]PSB-11 from human adenosine A3 receptor expressed in CHO cells at 1 uM. Format: cell-based. Background: Loss of bound radioactivity is the signal in a displacement assay; it reports binding, not function.

The next test has as its target T3, Adenosine receptor A2b (Homo sapiens, UniProt P29275).
T3 sequence (P29275 whole entry): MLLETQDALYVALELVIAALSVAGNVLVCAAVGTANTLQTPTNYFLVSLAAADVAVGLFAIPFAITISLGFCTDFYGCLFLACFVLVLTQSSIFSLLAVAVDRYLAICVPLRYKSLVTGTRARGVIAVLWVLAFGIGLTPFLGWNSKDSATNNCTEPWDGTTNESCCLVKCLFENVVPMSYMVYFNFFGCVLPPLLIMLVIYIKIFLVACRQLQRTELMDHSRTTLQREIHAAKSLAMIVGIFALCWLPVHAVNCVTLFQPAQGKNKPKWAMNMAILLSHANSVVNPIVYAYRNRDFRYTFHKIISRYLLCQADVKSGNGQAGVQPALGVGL
In words: Displacement of [3H]PSB-603 from human adenosine A2B receptor expressed in CHO cells. Format: cell-based.

In test [3] the target is Adenosine receptor A2a (Rattus norvegicus) (UniProt P30543). In words: Displacement of [3H]MSX2 from adenosine A2A receptor in rat brain striatum membrane at 1 uM. Format: cell membranes.
Adenosine receptor A2a (Rattus norvegicus), sequence (P30543 whole entry): as the sequence (P30543 whole entry) above
In test [4] the target is T4, Adenosine receptor A3 (Homo sapiens, UniProt P0DMS8).
T4 sequence (P0DMS8 whole entry): T2 sequence (whole entry)
In words: biochemical.

In test [5] the target is T5, Adenosine receptor A2b (Homo sapiens) (UniProt P29275).
T5 sequence (whole entry): T3 sequence (P29275 whole entry)
In words: Displacement of [3H]PSB-603 from human adenosine A2B receptor expressed in CHO cells at 1 uM. It is filed as cell-based.

Test [6] deals with T6, Adenosine receptor A1 (Rattus norvegicus, UniProt P25099).
T6 sequence (P25099 whole entry): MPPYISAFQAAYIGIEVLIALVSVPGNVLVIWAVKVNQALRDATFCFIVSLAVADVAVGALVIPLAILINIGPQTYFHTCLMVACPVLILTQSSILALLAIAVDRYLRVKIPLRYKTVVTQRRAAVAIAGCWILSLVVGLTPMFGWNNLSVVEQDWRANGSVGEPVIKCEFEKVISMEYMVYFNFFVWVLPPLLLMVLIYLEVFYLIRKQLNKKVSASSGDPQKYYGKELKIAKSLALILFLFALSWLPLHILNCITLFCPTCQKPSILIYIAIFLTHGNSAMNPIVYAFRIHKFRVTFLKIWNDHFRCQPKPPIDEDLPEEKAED

Test [7] concerns the target T7, Adenosine receptor A1 (Rattus norvegicus) (UniProt P25099).
T7 sequence (whole entry): T6 sequence (P25099 whole entry)
In words: Displacement of [3H]CCPA from adenosine A1 receptor in rat brain cortex membrane at 1 uM. Format: cell membranes.

In test [8] the target is T6, Adenosine receptor A1. In words: Binding affinity to rat adenosine A1 receptor.
The target of test [9] is T4, Adenosine receptor A3. Nature of the test: Binding affinity to human adenosine A3 receptor.
For test [10], the target named is T1, Adenosine receptor A2a. This is another data set of the same source.
Description: Binding affinity to rat adenosine A2A receptor
The target in test [11] is T8, Adenosine receptor A1 (Homo sapiens, UniProt P30542).
T8 sequence (P30542 whole entry): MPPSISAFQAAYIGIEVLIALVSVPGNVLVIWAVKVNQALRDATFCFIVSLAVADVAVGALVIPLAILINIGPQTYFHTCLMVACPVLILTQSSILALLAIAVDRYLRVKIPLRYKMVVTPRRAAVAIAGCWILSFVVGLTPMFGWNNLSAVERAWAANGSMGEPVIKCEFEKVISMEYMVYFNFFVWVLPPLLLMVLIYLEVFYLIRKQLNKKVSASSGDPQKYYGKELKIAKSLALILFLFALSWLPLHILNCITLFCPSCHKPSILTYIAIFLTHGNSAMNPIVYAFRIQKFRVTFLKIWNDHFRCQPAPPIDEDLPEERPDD
Nature of the test: Binding affinity to human adenosine A1 receptor.

Test [12] has as its target Adenosine receptor A2a (Cavia porcellus, UniProt P46616). In words: Binding affinity to guinea pig adenosine A2A receptor.

Adenosine receptor A2a (Cavia porcellus, UniProt P46616), sequence (P46616 whole entry): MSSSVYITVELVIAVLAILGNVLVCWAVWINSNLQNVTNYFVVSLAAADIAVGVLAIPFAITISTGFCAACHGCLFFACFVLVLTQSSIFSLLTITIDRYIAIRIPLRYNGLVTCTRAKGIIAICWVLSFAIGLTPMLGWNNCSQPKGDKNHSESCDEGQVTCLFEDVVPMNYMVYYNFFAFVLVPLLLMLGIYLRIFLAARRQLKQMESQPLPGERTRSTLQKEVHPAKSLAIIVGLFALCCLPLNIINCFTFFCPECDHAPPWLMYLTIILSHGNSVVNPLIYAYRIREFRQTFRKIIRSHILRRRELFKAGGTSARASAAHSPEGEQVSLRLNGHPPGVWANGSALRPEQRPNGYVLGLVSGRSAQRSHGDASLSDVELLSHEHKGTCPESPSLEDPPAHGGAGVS

Consider `CNc1nc(-c2ccccc2)c(C(=O)c2ccc(OC)cc2)s1`, for which the Ki on Adenosine receptor A2a [1], on Adenosine receptor A2b, at Adenosine receptor A3 [4] and at Adenosine receptor A1 [6] was more than 1000 nM throughout. Besides, the inhibition in test [2], in [3], in [5] and in [7] was less than 30% throughout.

Turning to `OC[C@H]1O[C@@H](n2cnc3c(NC4CCCC4)ncnc32)[C@H](O)[C@@H]1O` [N6-CYCLOPENTYLADENOSINE], the Ki on Adenosine receptor A2a [1] stood at 2470 nM; at Adenosine receptor A3 [4], 3250 nM.

As for `COc1ccc(C(=O)c2sc(NC(=O)c3ccccc3)nc2-c2ccccc2)cc1`, the Ki is more than 1000 nM on Adenosine receptor A2a [1], more than 1000 nM on Adenosine receptor A2b, 1000 nM on Adenosine receptor A3 [4] and 7.15 nM on Adenosine receptor A1 [6]. The inhibition in test [2] is 56%; in test [3], less than 30%; in test [5] it was less than 30%.

With `CCCn1c(=O)c2[nH]c(C34CCC(CCC(=O)O)(CC3)CC4)nc2n(CCC)c1=O` [TONAPOFYLLINE], the Ki at Adenosine receptor A1 [8] turned out to be 1.3 nM; on Adenosine receptor A3 [9], 10000 nM; on Adenosine receptor A2a [10], 2440 nM.

For `OC1CCC(Nc2nc(-c3ccccc3)nc3[nH]ccc23)CC1` (stereo unspecified) [DERENOFYLLINE], the inhibition constant (Ki) on Adenosine receptor A1 [11] stood at 1 nM; at Adenosine receptor A1 [8], 2.51 nM; at Adenosine receptor A3 [9], 200 nM; on Adenosine receptor A2a [10], 501 nM.

For `O=C(Nc1nc(-c2ccccc2)c(C(=O)c2ccc(Cl)cc2)s1)c1ccco1`, the Ki was more than 1000 nM on Adenosine receptor A2a [1], more than 1000 nM at Adenosine receptor A2b, 619 nM on Adenosine receptor A3 [4] and 12 nM at Adenosine receptor A1 [6]. Also, the inhibition in test [3] and in test [5] was less than 30% each time.

For the compound `Cc1ccc(C(=O)Nc2nc(-c3ccccc3)c(C(=O)c3ccccc3)s2)cc1`, the inhibitory constant (Ki) on Adenosine receptor A2a [1], at Adenosine receptor A2b, at Adenosine receptor A3 [4] and on Adenosine receptor A1 [6] was more than 1000 nM throughout. Besides, the inhibition in test [2] is less than 30%; in test [3], less than 30%; in test [5], 40%; in test [7] it was less than 30%.

In the case of `CS(=O)(=O)c1ccc(C(=O)c2sc(Nc3ccccc3)nc2-c2ccccc2)cc1`, the Ki on Adenosine receptor A2a [1], on Adenosine receptor A2b, at Adenosine receptor A3 [4] and on Adenosine receptor A1 [6] was more than 1000 nM each time. For the same compound, the inhibition in test [2], in [3], in [5] and in test [7] was less than 30% throughout.

For the compound `CCOC(=O)Nc1nc(-c2ccccc2)c(C(=O)c2ccc(OC)cc2)s1`, the Ki at Adenosine receptor A2a [1] is 1840 nM; at Adenosine receptor A2b it was more than 1000 nM; on Adenosine receptor A3 [4] it was 98.8 nM; on Adenosine receptor A1 [6], 69.9 nM. In addition, the inhibition in test [5] was less than 30%.

For the compound `O=C(Nc1nc(-c2ccccc2)c(C(=O)c2ccccc2)s1)c1ccccc1`, the Ki on Adenosine receptor A2a [1] was 3030 nM; at Adenosine receptor A2b it was more than 1000 nM; on Adenosine receptor A3 [4], 354 nM; at Adenosine receptor A1 [6], 9.51 nM. In addition, the inhibition in test [5] was less than 30%.

Take `O=C(c1ccccc1)c1sc(Nc2ccccc2)nc1-c1ccccc1`: the Ki is more than 1000 nM on Adenosine receptor A2a [1], 337 nM at Adenosine receptor A2b, more than 1000 nM on Adenosine receptor A3 [4] and more than 1000 nM at Adenosine receptor A1 [6]. In addition, the inhibition in test [2], in test [3] and in [7] was less than 30% in each case.

With `CCOC(=O)Nc1nc(-c2ccccc2)c(C(=O)c2ccc(Cl)cc2)s1`, the inhibition constant (Ki) on Adenosine receptor A2a [1] is more than 1000 nM; at Adenosine receptor A2b, more than 1000 nM; at Adenosine receptor A3 [4] it was 487 nM; on Adenosine receptor A1 [6], 1000 nM. The inhibition in test [3] was less than 30%; in test [5], less than 30%; in test [7], 41%.

On to `Cc1ccc(C(=O)c2sc(Nc3ccccc3)nc2-c2ccccc2)cc1`, for which the inhibition constant Ki at Adenosine receptor A2a [1], on Adenosine receptor A2b, at Adenosine receptor A3 [4] and on Adenosine receptor A1 [6] was more than 1000 nM throughout. Also, the inhibition in test [2], in test [3], in test [5] and in [7] was less than 30% throughout.

`CNc1nc(-c2ccccc2)c(C(=O)c2ccccc2)s1`: the Ki on Adenosine receptor A2a [1], on Adenosine receptor A2b, at Adenosine receptor A3 [4] and on Adenosine receptor A1 [6] was more than 1000 nM throughout. For the same compound, the inhibition in [2], in [3], in test [5] and in [7] was less than 30% in each case.

Consider `Cc1ccc(C(=O)Nc2nc(-c3ccccc3)c(C(=O)c3ccc(Cl)cc3)s2)cc1`, for which the inhibition constant (Ki) at Adenosine receptor A2a [1], at Adenosine receptor A2b, on Adenosine receptor A3 [4] and at Adenosine receptor A1 [6] was more than 1000 nM in each case. The inhibition in test [2], in test [3], in test [5] and in test [7] was less than 30% each time.

Consider `CNc1nc(-c2ccccc2)c(C(=O)c2ccc(Cl)cc2)s1`, for which the Ki on Adenosine receptor A2a [1], on Adenosine receptor A2b, on Adenosine receptor A3 [4] and on Adenosine receptor A1 [6] was more than 1000 nM each time. Also, the inhibition in [2], in test [3], in [5] and in test [7] was less than 30% each time.

As for `O=C(c1ccccc1)c1sc(NCCc2cccs2)nc1-c1ccco1`, the Ki on Adenosine receptor A1 [11] is more than 6700 nM.

Consider `CCOC(=O)Nc1nc(-c2ccccc2)c(C(=O)c2ccccc2)s1`, for which the inhibition constant Ki at Adenosine receptor A2a [1] worked out at 1640 nM; on Adenosine receptor A2b, 391 nM; on Adenosine receptor A3 [4] it was 206 nM; at Adenosine receptor A1 [6], 72.9 nM.

Regarding `CCCn1c(=O)c2[nH]c(C34CC5CC(CC3C5)C4)nc2n(CCC)c1=O` [ROLOFYLLINE], the Ki on Adenosine receptor A2a [10] came out at 170 nM; at Adenosine receptor A2a [12] it was 230 nM.

Regarding `COc1ccc(C(=O)c2sc(Nc3ccccc3)nc2-c2ccccc2)cc1`, the inhibition in [2] was less than 30%; in test [3] it was less than 30%; in [5], 39%; in [7], less than 30%.

Regarding `CS(=O)(=O)c1ccc(C(=O)c2sc(NC(=O)c3ccccc3)nc2-c2ccccc2)cc1`, the inhibitory constant (Ki) at Adenosine receptor A2a [1], on Adenosine receptor A2b, on Adenosine receptor A3 [4] and at Adenosine receptor A1 [6] was more than 1000 nM each time. In addition, the inhibition in test [2], in test [3], in test [5] and in test [7] was less than 30% throughout.
